The results in this text go back to patent publication US20240285614A1, “PHENOL RIBONUCLEOTIDE REDUCTASE (RNR) INHIBITORS AND USES THEREOF” (Boundless Bio, Inc., priority 2023, published 2024).

The structures appear in SMILES notation. pIC50: −log10 of the molar value.

The target of one assay is T1, RNR (RNR1:RNR2 1:1) (Homo sapiens, UniProt P23921+P31350).
T1 sequence (P23921 1-792): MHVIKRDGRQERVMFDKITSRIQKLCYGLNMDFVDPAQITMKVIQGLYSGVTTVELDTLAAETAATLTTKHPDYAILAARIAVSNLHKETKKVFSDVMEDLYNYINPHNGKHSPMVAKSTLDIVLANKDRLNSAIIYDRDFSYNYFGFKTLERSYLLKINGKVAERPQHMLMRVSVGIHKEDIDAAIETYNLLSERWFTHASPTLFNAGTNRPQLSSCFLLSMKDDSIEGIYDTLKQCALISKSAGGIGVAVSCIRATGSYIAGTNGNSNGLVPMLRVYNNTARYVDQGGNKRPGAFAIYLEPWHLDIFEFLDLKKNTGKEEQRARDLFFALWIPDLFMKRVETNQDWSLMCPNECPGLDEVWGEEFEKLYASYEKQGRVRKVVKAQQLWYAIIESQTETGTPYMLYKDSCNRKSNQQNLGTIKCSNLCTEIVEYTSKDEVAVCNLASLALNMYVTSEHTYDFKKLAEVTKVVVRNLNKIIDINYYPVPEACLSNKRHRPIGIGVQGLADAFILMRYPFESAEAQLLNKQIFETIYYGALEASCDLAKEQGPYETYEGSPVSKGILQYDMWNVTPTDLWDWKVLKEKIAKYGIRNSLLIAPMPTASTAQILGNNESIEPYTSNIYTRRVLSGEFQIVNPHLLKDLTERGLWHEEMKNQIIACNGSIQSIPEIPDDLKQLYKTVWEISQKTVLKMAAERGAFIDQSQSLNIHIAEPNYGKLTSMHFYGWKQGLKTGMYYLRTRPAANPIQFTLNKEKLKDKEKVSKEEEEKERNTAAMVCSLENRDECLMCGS
T1 sequence (P31350 1-389): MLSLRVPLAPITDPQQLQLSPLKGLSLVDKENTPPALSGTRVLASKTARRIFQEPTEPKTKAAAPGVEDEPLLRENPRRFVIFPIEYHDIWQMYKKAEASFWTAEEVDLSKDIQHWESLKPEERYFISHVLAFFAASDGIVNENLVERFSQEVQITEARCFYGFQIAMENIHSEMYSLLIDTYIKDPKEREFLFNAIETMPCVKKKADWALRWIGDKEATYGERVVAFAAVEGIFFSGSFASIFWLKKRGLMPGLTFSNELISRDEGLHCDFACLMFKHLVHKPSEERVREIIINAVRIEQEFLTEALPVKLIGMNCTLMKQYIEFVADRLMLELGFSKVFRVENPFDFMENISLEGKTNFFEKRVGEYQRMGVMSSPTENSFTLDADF
In words: RNR enzyme activity, rapid-fire mass spectrometry (RF/MS) assay. It is filed as biochemical. The following applies: RNR 50 nM, 1:1 (RNR1:RNR2); CDP 5 μM; ATP 1 mM; 37° C., 45 min; compounds screened up to 50 μM. The procedure:
A rapid-fire mass spectrometry (RF/MS) assay was used to assess RNR enzyme activity using a 384 well plate and a robotic platform.
The plate layout included two validated reference compounds (Triapine (3-AP) and Hydroxyurea (HU)): • A dose response in duplicate, top concentration: 5 μM (3-AP) and 250 μM (HU), semi-log • dilutions. • Spike wells in triplicate randomly spotted at four concentrations: • 250 μM, 100 μM, 30 μM and 2 μM for HU • 5 μM, 2 μM, 0.6 μM and 0.04 μM for 3-AP
First, the multidrop pipes were saturated for 30 minutes with enzymatic solution. Then 30 μL of Stop solution was distributed in column 24. Next, 15 μL of enzyme was distributed in column 1 to 24. Next, a pre-incubation step of 15 minutes at room temperature occurred, followed by distribution of 15 μL of substrate solution (column 1 to 24). Next, the plate was incubated for 45 minutes at 37° C. 30 μL of Stop solution was distributed to columns 1 to 23.
The final parameters for the enzyme reactions were: • Incubation: 37° C., 45 min • [CDP]: 5 μM: [ATP]: 1 mM; [NADPH]: No • [RNR]final: 50 nM with 1:1 (RNR1:RNR2) ratio • Final volume: 30 μL • Stop solution: 6% HCOOH containing 2 μM of 15

In assay [1] the test system is pCHK1 (S345) in Colo320 DM cells. In words: Alphalisa assay, detection of pCHK1 (S345) in Colo320 DM cells. It is filed as cell-based. The following applies: Homo sapiens, COLO 320DM, compound incubation overnight (approximately 16 hours). Here is the method:
Colo320 DM cells (ATCC #CCL-220, derived from human colorectal adenocarcinoma, Dukes' type C) were seeded on a 96-well, cell culture treated assay plate at a density of 50,000 cells/well in 200 μL of RPMI-1640 media supplemented with 10% Fetal Bovine Serum and incubated at 37° C. overnight. The following day, test compound dilutions were added directly to the plated cells by a Tecan digital dispenser to a final DMSO concentration of <0.5%, and incubated at 37° C. overnight (approximately 16 hours). The following day all cull culture media was removed from the cells. 75 μL of 1× AlphaLisa lysis buffer was added to each well and plates were agitated on a shaker for 30 minutes at room temperature. The lysis of cells and detection of pCHK1 (S345) were performed with regents contained within the AlphaLisa Sure Fire assay kit (Perkin Elmer #ALSU-PCHK1-A) according to the manufacturer's instructions. 10 μL of each lysate was then transferred to a white, 384-well assay plate (Perkin Elmer #6008280), 5 μL of Acceptor mix was then added to each well of lysate in the white, 384-well assay plate and incubated in the dark at room temperature for 60 minutes. 5 μL of Donor mix was then added to each well of the white, 384-well assay plate in subdued light and incubated at room temperature for 60 minutes. Plates were read on an Alpha Technology-compatible plate reader using standard AlphaLisa settings.

On to `O=S(=O)(c1ccc2cc[nH]c2c1)N1CC(O)C(Nc2ccc(O)cc2)C1` (stereo not drawn) [compound 44, 1-((1H-indol-6-yl)sulfonyl)-4-((4-hydroxyphenyl)amino) pyrrolidin-3-ol], for which the pIC50 against RNR (RNR1:RNR2 1:1) was 7.00 to 7.30; in assay [1], 5.00 to 5.30.

In the case of `CN(CC1CCN1S(=O)(=O)c1ccc2cc[nH]c2c1)c1ccc(O)cc1` (stereo not drawn) [compound 45, 4-(((1-((1H-indol-6-yl)sulfonyl)azetidin-2-yl)methyl)(methyl)amino) phenol], the pIC50 against RNR (RNR1:RNR2 1:1) was 7.00 to 7.30; in assay [1], 5.00 to 5.30.

With `O=S(=O)(c1ccc2cc[nH]c2c1)N1CCN(c2ccc(O)cc2)CC12CCC2` [compound 46, 4-(5-((1H-indol-6-yl)sulfonyl)-5,8-diazaspiro[3.5]nonan-8-yl)phenol], the pIC50 against RNR (RNR1:RNR2 1:1) was 7.00 to 7.30; in assay [1] it was 5.30 to 6.00.

On to `O=S(=O)(c1cc2ccccc2[nH]1)N1CCC2(CCN(c3ccc(O)cc3)CC2)C1` [compound 47, 4-(2-((1H-indol-2-yl)sulfonyl)-2,8-diazaspiro[4.5]decan-8-yl)phenol], for which the pIC50 on RNR (RNR1:RNR2 1:1) is 6.30 to 7.00; in assay [1], 4.30 to 5.00.

As to `O=S(=O)(c1ccc2cc[nH]c2c1)N1CC[C@H](N(Cc2cccnc2)c2ccc(O)cc2)C1` [compound 50, (S)-4-((1-((1H-indol-6-yl)sulfonyl)pyrrolidin-3-yl)(pyridin-3-ylmethyl)amino)phenol], the figures for the pIC50 (against RNR (RNR1:RNR2 1:1); in assay [1]) were 6.30 to 7.00 and 4.30 to 5.00, respectively.

As for `O=S(=O)(c1ccc2cc[nH]c2c1)N1CC2CN(c3ccc(O)cc3)CCC21` (stereo not drawn) [compound 51, 4-(7-((1H-indol-6-yl)sulfonyl)-3,7-diazabicyclo[4.2.0]octan-3-yl)phenol], the pIC50 was 6.30 to 7.00 against RNR (RNR1:RNR2 1:1) and 5.00 to 5.30 in assay [1].
